Experimental data taken from ChEMBL document CHEMBL1201862, “PubChem BioAssay data set” (2004).
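In this assay, cells in 96-well plates receive the compound at five concentrations for 48 hours. Endpoints are linearly interpolated between the surrounding concentrations. GI50 = concentration required for 50% inhibition of growth.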 Calls of active or inactive are those of the source. No stated cut-off is given here; in the data, active = GI50 up to about 1.1 µM and inactive = higher.

How the values were obtained:
Assay in all cases: NCI anticancer screen, dose series, 48 h
NCI-H460 = tested on: NCI-H460
EKVX = tested on: EKVX
RPMI-8226 = tested on: RPMI-8226
OVCAR-8 = tested on: OVCAR-8
SNB-75 = tested on: SNB-75
U-251 = tested on: U-251
RXF 393 = tested on: RXF 393
M14 = tested on: M14
SF-295 = tested on: SF-295
SF-539 = tested on: SF-539
SN12C = tested on: SN12C
SW-620 = tested on: SW-620
COLO 205 = tested on: COLO 205
Malme-3M = tested on: Malme-3M
UACC-257 = tested on: UACC-257
SK-MEL-5 = tested on: SK-MEL-5
OVCAR-5 = tested on: OVCAR-5
NCI-H522 = tested on: NCI-H522
SNB-19 = tested on: SNB-19

Measured: GI50

Cn1c(CCC#N)nc2ccc(Br)cc2c1=O
inactive: NCI-H460 > 100 µM | EKVX > 100 µM | RPMI-8226 > 100 µM | OVCAR-8 > 100 µM | SNB-75 > 100 µM | U-251 > 100 µM | RXF 393 > 100 µM | M14 > 100 µM | SF-295 > 100 µM | SF-539 > 100 µM | SN12C > 100 µM | SW-620 > 100 µM | COLO 205 > 100 µM | Malme-3M > 100 µM | UACC-257 > 100 µM | SK-MEL-5 > 100 µM | OVCAR-5 > 100 µM | NCI-H522 > 100 µM

Cc1cc2c(=O)cc(-c3ccc(C(=O)O)cc3)oc2c(C(N)=O)c1C
inactive: NCI-H460 > 100 µM | EKVX > 100 µM | SNB-19 > 100 µM | RPMI-8226 > 100 µM | OVCAR-8 > 100 µM | SNB-75 28.9 µM | U-251 > 100 µM | M14 > 100 µM | SF-295 > 100 µM | SF-539 > 100 µM | SN12C > 100 µM | SW-620 > 100 µM | COLO 205 > 100 µM | Malme-3M > 100 µM | UACC-257 > 100 µM | SK-MEL-5 > 100 µM | OVCAR-5 > 100 µM | NCI-H522 > 100 µM

CC1CN1c1c(C(=O)/C=C/c2ccccc2)c(-c2ccccc2)nn(C)c1=O (stereo not drawn)
inactive: NCI-H460 19.1 µM | EKVX 17.3 µM | SNB-19 24.4 µM | OVCAR-8 19.1 µM | SNB-75 18.8 µM | U-251 16.9 µM | RXF 393 24.7 µM | M14 17.1 µM | SF-295 22.6 µM | SF-539 16.9 µM | SN12C 17.7 µM | SW-620 18.2 µM | COLO 205 16.2 µM | Malme-3M 19.7 µM | UACC-257 18.1 µM | SK-MEL-5 15.9 µM | OVCAR-5 20.3 µM | NCI-H522 13.4 µM

C[C@]12CC[C@H](O)CC1=CC[C@@H]1C2CC[C@]2(C)NC(=O)C(C#N)CC12 (stereo partly drawn)
inactive: NCI-H460 > 100 µM | EKVX > 100 µM | RPMI-8226 > 100 µM | OVCAR-8 > 100 µM | SNB-75 51.4 µM | U-251 > 100 µM | RXF 393 55.1 µM | M14 > 100 µM | SF-295 12.8 µM | SF-539 > 100 µM | SW-620 > 100 µM | Malme-3M > 100 µM | UACC-257 > 100 µM | SK-MEL-5 > 100 µM | OVCAR-5 > 100 µM

O=C1CNC(=O)/C(=C/c2c[nH]c3ccccc23)N1
inactive: NCI-H460 > 100 µM | EKVX > 100 µM | SNB-19 > 100 µM | RPMI-8226 > 100 µM | OVCAR-8 > 100 µM | RXF 393 > 100 µM | M14 > 100 µM | SF-295 > 100 µM | SN12C > 100 µM | SW-620 > 100 µM | Malme-3M > 100 µM | UACC-257 > 100 µM | SK-MEL-5 > 100 µM | OVCAR-5 > 100 µM | NCI-H522 85.3 µM

CN(C)c1ccc(/C=C/C(=O)c2ccccc2)cc1Br
inactive: NCI-H460 35.7 µM | EKVX > 100 µM | SNB-19 18.8 µM | RPMI-8226 13.2 µM | OVCAR-8 23.2 µM | SNB-75 16.6 µM | U-251 18.5 µM | M14 13.2 µM | SF-295 20 µM | SN12C 21.1 µM | SW-620 19.9 µM | COLO 205 18.3 µM | Malme-3M 17.6 µM | UACC-257 22.3 µM | SK-MEL-5 18.4 µM | OVCAR-5 49.3 µM | NCI-H522 15 µM

CCC(=O)N1C(=O)OCC1C(C)C (stereo not drawn)
inactive: NCI-H460 > 100 µM | EKVX > 100 µM | SNB-19 > 100 µM | RPMI-8226 > 100 µM | OVCAR-8 > 100 µM | SNB-75 > 100 µM | U-251 > 100 µM | RXF 393 > 100 µM | M14 > 100 µM | SF-295 > 100 µM | SF-539 > 100 µM | SN12C > 100 µM | SW-620 > 100 µM | COLO 205 > 100 µM | Malme-3M > 100 µM | UACC-257 > 100 µM | SK-MEL-5 > 100 µM | OVCAR-5 > 100 µM

Clc1ccc(/C=C/c2csnn2)cc1
inactive: NCI-H460 > 100 µM | EKVX > 100 µM | SNB-19 > 100 µM | OVCAR-8 > 100 µM | SNB-75 > 100 µM | U-251 > 100 µM | RXF 393 > 100 µM | M14 > 100 µM | SF-295 > 100 µM | SF-539 > 100 µM | SN12C > 100 µM | SW-620 > 100 µM | COLO 205 > 100 µM | Malme-3M > 100 µM | UACC-257 > 100 µM | SK-MEL-5 > 100 µM | OVCAR-5 > 100 µM | NCI-H522 > 100 µM

CCCCCCCCCCCCCC(=O)CSCCNC(=O)CCNC(=O)[C@@H](O)C(C)(C)COP(=O)(O)OP(=O)(O)OCC1OC(n2cnc3c(N)ncnc32)C(O)C1OP(=O)(O)O (stereo partly drawn)
inactive: NCI-H460 25.6 µM | EKVX 17.9 µM | SNB-19 18.6 µM | OVCAR-8 27.4 µM | SNB-75 5.7 µM | U-251 18 µM | RXF 393 25 µM | M14 18.1 µM | SF-295 13.4 µM | SF-539 16.2 µM | SN12C 16.4 µM | SW-620 19.4 µM | COLO 205 13.1 µM | Malme-3M 17.9 µM | UACC-257 18.1 µM | SK-MEL-5 18.9 µM | OVCAR-5 32.4 µM | NCI-H522 10.6 µM

COC1=CC(C)C2C[C@H]3O[C@H](O)C[C@H]4C(C)C(=O)C(O)C([C@@]2(C)C1=O)[C@@]34C (stereo partly drawn)
inactive: NCI-H460 > 100 µM | EKVX > 100 µM | RPMI-8226 > 100 µM | OVCAR-8 > 100 µM | SNB-75 > 100 µM | U-251 > 10 µM | RXF 393 > 100 µM | M14 > 100 µM | SF-295 > 100 µM | SF-539 > 100 µM | SN12C > 100 µM | SW-620 > 100 µM | COLO 205 > 100 µM | Malme-3M > 100 µM | UACC-257 > 100 µM | SK-MEL-5 > 100 µM | NCI-H522 > 100 µM

CC(C)c1ccc(C(c2ccc(OCC(=O)O)cc2)c2ccc(C(C)C)cc(=O)c2O)c(O)c(=O)c1
inactive: NCI-H460 2.83 µM | EKVX 4.93 µM | SNB-19 5.89 µM | RPMI-8226 4.38 µM | OVCAR-8 4.44 µM | SNB-75 3.29 µM | U-251 5.3 µM | RXF 393 10.2 µM | M14 3.18 µM | SF-295 4.4 µM | SF-539 6.05 µM | SN12C 4.15 µM | SW-620 4.8 µM | COLO 205 3.14 µM | UACC-257 5.6 µM | SK-MEL-5 3.22 µM
